Experimental data as given in US20230011869A1 (Hoffmann-La Roche Inc., priority 2018, published 2023).
Where a name gives a salt, the structure may show the parent alone.

Tested on: Acinetobacter baumannii ATCC17978
Assay: Antimicrobial susceptibility testing: 90% growth inhibitory concentration (IC90) determination, Iso-Sensitest broth
Type: cell-based
Conditions: 90% growth inhibitory concentration, Acinetobacter baumannii ATCC17978, Iso-Sensitest broth, OD 600 nm over 16 h; read-out: ATCC17978 IC90
Outline: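 A. baumannii ATCC17978 grown in Iso-Sensitest broth across 10 compound concentrations at 35±2 °C.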

Compound | IC90 [nM]
Cc1cc(Nc2nccn3c(-c4ccc(OC(F)F)cc4)cnc23)ccc1C(=O)N1CCN(C(=O)N2CCOC(CN(C)C)C2)CC1 (stereo not shown) [Example 132, [4-[[3-[4-(difluoromethoxy)phenyl]imidazo[1,2-a]pyrazin-8-yl]amino]-2-methyl-phenyl]-[4-[2-[(dimethylamino)methyl]morpholine-4-carbonyl]piperazin-1-yl]methanone] | 300
Cc1cc(Nc2nccn3c(-c4ccc(OC(F)F)cc4)cnc23)ccc1C(=O)N1CCN(C(=O)N2CCNC(CO)C2)CC1 (stereo not shown) [Example 133, [4-[[3-[4-(difluoromethoxy)phenyl]imidazo[1,2-a]pyrazin-8-yl]amino]-2-methyl-phenyl]-[4-[3-(hydroxymethyl)piperazine-1-carbonyl]piperazin-1-yl]methanone hydrochloride] | 230
Cc1cc(Nc2nccn3c(-c4ccc(OC(F)F)cc4)cnc23)ccc1C(=O)N1CCN(C(=O)N2CCOC(CN)C2)CC1 (stereo not shown) [Example 134, [4-[2-(aminomethyl)morpholine-4-carbonyl]piperazin-1-yl]-[4-[[3-[4-(difluoromethoxy)phenyl]imidazo[1,2-a]pyrazin-8-yl]amino]-2-methyl-phenyl]methanone hydrochloride] | 260
Cc1cc(Nc2nccn3c(-c4ccc(OC(F)F)cc4)cnc23)ccc1C(=O)N1CCN(C(=O)N(C)C)CC1 [Example 135, 4-[4-[[3-[4-(difluoromethoxy)phenyl]imidazo[1,2-a]pyrazin-8-yl]amino]-2-methyl-benzoyl]-N,N-dimethyl-piperazine-1-carboxamide] | 280
CNCC1CN(C(=O)N2CCN(C(=O)c3ccc(Nc4nccn5c(-c6ccc(OC(F)F)cc6)cnc45)cc3C)CC2)CCO1 (stereo not shown) [Example 136, [4-[[3-[4-(difluoromethoxy)phenyl]imidazo[1,2-a]pyrazin-8-yl]amino]-2-methyl-phenyl]-[4-[2-(methylaminomethyl)morpholine-4-carbonyl]piperazin-1-yl]methanone hydrochloride] | 270
Cc1cc(Nc2nccn3c(-c4ccc(OCC#N)c(F)c4F)cnc23)ccc1C(=O)N1CCN(C(=O)N2CCNCC2)CC1 [Example 137, 2-[2,3-difluoro-4-[8-[3-methyl-4-[4-(piperazine-1-carbonyl)piperazine-1-carbonyl]anilino]imidazo[1,2-a]pyrazin-3-yl]phenoxy]acetonitrile formate] | 130
Cc1cc(Nc2nccn3c(-c4ccc(OC(F)F)cc4)cnc23)ccc1C(=O)N1CCN(C(=O)N[C@H]2CCNC2)CC1 [Example 138, 4-[4-[[3-[4-(difluoromethoxy)phenyl]imidazo[1,2-a]pyrazin-8-yl]amino]-2-methyl-benzoyl]-N-[(3S)-pyrrolidin-3-yl]piperazine-1-carboxamide hydrochloride] | 110
Cc1cc(Nc2nccn3c(-c4ccc(OCC#N)c(F)c4F)cnc23)ccc1C(=O)N1CCN(C(=O)NCCN)CC1 [Example 139, N-(2-aminoethyl)-4-[4-[[3-[4-(cyanomethoxy)-2,3-difluoro-phenyl]imidazo[1,2-a]pyrazin-8-yl]amino]-2-methyl-benzoyl]piperazine-1-carboxamide formate] | 130
COc1ccc(-c2cnc3c(Nc4ccc(C(=O)N5CCN(C(=O)N6CCO[C@H](CN)C6)CC5)c(C)c4)nccn23)c(F)c1F [Example 140, [4-[(2R)-2-(aminomethyl)morpholine-4-carbonyl]piperazin-1-yl]-[4-[[3-(2,3-difluoro-4-methoxy-phenyl)imidazo[1,2-a]pyrazin-8-yl]amino]-2-methyl-phenyl]methanone formate] | 190
Cc1cc(Nc2nccn3c(-c4ccc(OC(F)F)cc4)cnc23)ccc1C(=O)N1CCN(C(=O)N[C@@H]2CCNC2)CC1 [Example 142, 4-[4-[[3-[4-(difluoromethoxy)phenyl]imidazo[1,2-a]pyrazin-8-yl]amino]-2-methyl-benzoyl]-N-[(3R)-pyrrolidin-3-yl]piperazine-1-carboxamide hydrochloride] | 150
Cc1cc(Nc2nccn3c(-c4ccc(OC(F)F)cc4)cnc23)ccc1C(=O)N1CCN(C(=O)NC2CCNCC2)CC1 [Example 143, 4-[4-[[3-[4-(difluoromethoxy)phenyl]imidazo[1,2-a]pyrazin-8-yl]amino]-2-methyl-benzoyl]-N-(4-piperidyl)piperazine-1-carboxamide hydrochloride] | 160
Cc1cc(Nc2nccn3c(-c4ccc(OC(F)F)cc4)cnc23)ccc1C(=O)N1CCN(C(=O)NCC2CNC2)CC1 [Example 144, N-(azetidin-3-ylmethyl)-4-[4-[[3-[4-(difluoromethoxy)phenyl]imidazo[1,2-a]pyrazin-8-yl]amino]-2-methyl-benzoyl]piperazine-1-carboxamide formate] | 130
COc1ccc(-c2cnc3c(Nc4ccc(C(=O)N5CCN(C(=O)N6CCO[C@@H](CN)C6)CC5)c(C)c4)nccn23)c(F)c1F [Example 145, [4-[(2S)-2-(aminomethyl)morpholine-4-carbonyl]piperazin-1-yl]-[4-[[3-(2,3-difluoro-4-methoxy-phenyl)imidazo[1,2-a]pyrazin-8-yl]amino]-2-methyl-phenyl]methanone formate] | 170
Cc1cc(Nc2nccn3c(-c4ccc(OC(F)F)cc4)cnc23)ccc1C(=O)N1CCN(C(=O)N2CCO[C@@H](CN)C2)CC1 [Example 146, [4-[(2S)-2-(aminomethyl)morpholine-4-carbonyl]piperazin-1-yl]-[4-[[3-[4-(difluoromethoxy)phenyl]imidazo[1,2-a]pyrazin-8-yl]amino]-2-methyl-phenyl]methanone formate] | 300
COc1ccc(-c2cnc3c(Nc4ccc(C(=O)N5CCN(C(=O)N[C@@H](C)CN)CC5)c(C)c4)nccn23)c(F)c1F [Example 147, N-[(1S)-2-amino-1-methyl-ethyl]-4-[4-[[3-(2,3-difluoro-4-methoxy-phenyl)imidazo[1,2-a]pyrazin-8-yl]amino]-2-methyl-benzoyl]piperazine-1-carboxamide hydrochloride] | 210

Further lines, results first:

IC90 [nM] | Compound
210 | COc1ccc(-c2cnc3c(Nc4ccc(C(=O)N5CCN(C(=O)N[C@H](C)CN)CC5)c(C)c4)nccn23)c(F)c1F [Example 148, N-[(1R)-2-amino-1-methyl-ethyl]-4-[4-[[3-(2,3-difluoro-4-methoxy-phenyl)imidazo[1,2-a]pyrazin-8-yl]amino]-2-methyl-benzoyl]piperazine-1-carboxamide hydrochloride]
180 | COc1ccc(-c2cnc3c(Nc4ccc(C(=O)N5CCN(C(=O)NC[C@H](C)N)CC5)c(C)c4)nccn23)c(F)c1F [Example 149, N-[(2S)-2-aminopropyl]-4-[4-[[3-(2,3-difluoro-4-methoxy-phenyl)imidazo[1,2-a]pyrazin-8-yl]amino]-2-methyl-benzoyl]piperazine-1-carboxamide]
140 | Cc1cc(Nc2nccn3c(-c4ccc(OC(F)F)cc4)cnc23)ccc1C(=O)N1CCN(C(=O)NC[C@@H](C)N)CC1 [Example 150, N-[(2R)-2-aminopropyl]-4-[4-[[3-[4-(difluoromethoxy)phenyl]imidazo[1,2-a]pyrazin-8-yl]amino]-2-methyl-benzoyl]piperazine-1-carboxamide hydrochloride]
140 | Cc1cc(Nc2nccn3c(-c4ccc(OC(F)F)cc4)cnc23)ccc1C(=O)N1CCN(C(=O)NC[C@H](C)N)CC1 [Example 151, N-[(2S)-2-aminopropyl]-4-[4-[[3-[4-(difluoromethoxy)phenyl]imidazo[1,2-a]pyrazin-8-yl]amino]-2-methyl-benzoyl]piperazine-1-carboxamide hydrochloride]
110 | COc1ccc(-c2cnc3c(Nc4ccc(C(=O)N5CCN(C(=O)NC[C@@H](C)N)CC5)c(C)c4)nccn23)c(F)c1F [Example 152, N-[(2R)-2-aminopropyl]-4-[4-[[3-(2,3-difluoro-4-methoxy-phenyl)imidazo[1,2-a]pyrazin-8-yl]amino]-2-methyl-benzoyl]piperazine-1-carboxamide hydrochloride]
150 | COc1ccc(-c2cnc3c(Nc4ccc(C(=O)N5CCN(C(=O)NC[C@@H](C)N)CC5)c(C)c4)nccn23)c(Cl)c1F [Example 155, N-[(2R)-2-aminopropyl]-4-[4-[[3-(2-chloro-3-fluoro-4-methoxy-phenyl)imidazo[1,2-a]pyrazin-8-yl]amino]-2-methyl-benzoyl]piperazine-1-carboxamide formate]
180 | COc1ccc(-c2cnc3c(Nc4ccc(C(=O)N5CCN(C(=O)NC[C@H](C)N)CC5)c(C)c4)nccn23)c(Cl)c1F [Example 156, N-[(2S)-2-aminopropyl]-4-[4-[[3-(2-chloro-3-fluoro-4-methoxy-phenyl)imidazo[1,2-a]pyrazin-8-yl]amino]-2-methyl-benzoyl]piperazine-1-carboxamide formate]
92 | Cc1cc(Nc2nccn3c(-c4ccc(OCC#N)c(F)c4Cl)cnc23)ccc1C(=O)N1CCN(C(=O)N2CCO[C@H](CN)C2)CC1 [Example 157, 2-[4-[8-[4-[4-[(2R)-2-(aminomethyl)morpholine-4-carbonyl]piperazine-1-carbonyl]-3-methyl-anilino]imidazo[1,2-a]pyrazin-3-yl]-3-chloro-2-fluoro-phenoxy]acetonitrile formate]
100 | Cc1cc(Nc2nccn3c(-c4ccc(OCC#N)c(F)c4Cl)cnc23)ccc1C(=O)N1CCN(C(=O)N[C@H](C)CN)CC1 [Example 160, N-[(1R)-2-amino-1-methyl-ethyl]-4-[4-[[3-[2-chloro-4-(cyanomethoxy)-3-fluoro-phenyl]imidazo[1,2-a]pyrazin-8-yl]amino]-2-methyl-benzoyl]piperazine-1-carboxamide formate]
71 | Cc1cc(Nc2nccn3c(-c4ccc(OCC#N)c(F)c4Cl)cnc23)ccc1C(=O)N1CCN(C(=O)NC[C@@H](C)N)CC1 [Example 164, N-[(2R)-2-aminopropyl]-4-[4-[[3-[2-chloro-4-(cyanomethoxy)-3-fluoro-phenyl]imidazo[1,2-a]pyrazin-8-yl]amino]-2-methyl-benzoyl]piperazine-1-carboxamide formate]
